Test results taken from patent US12304912B2, “Fused bicyclic RAF inhibitors and methods for use thereof” (Jazz Pharmaceuticals Ireland Limited, priority 2020, dated 2025).

Experiments:
[1] = Microsomal stability assay, mouse liver microsomes (MLM); format: in vitro ADME; details: 0.5 mg/mL protein, 1 μM substrate
Method: (§1) Microsomal Stability Assay
(§2) The stability studies were performed manually using the substrate depletion approach. Test compounds were incubated at 37° C. with cryo-preserved mouse or human liver microsomes (Corning) at a protein concentration of 0.5 mg·mL^−1 and a final substrate concentration of 1 μM. Aliquots were removed from the incubation at defined timepoints and the reaction was terminated by adding to ice-cold organic solvent. Compound concentrations were determined by LC-MS/MS analysis. The natural log of the percentage of compound remaining was plotted against each time point and the slope determined. The half-life (t1/2) and CLint were calculated using Equations 1 and 2, respectively.
(§3) HLM (human liver microsomes) and MLM (mouse liver microsomes) stability assay results are described in Tables 1-2.

[2] = tested on: BRAF monomers in A375 cells; assay: A375 AlphaLISA SureFire pERK1/2 cellular assay (monomer); format: cell-based; details: Homo sapiens, A-375; A375 cells, 1 hr; read-out: pERK A375 (1 hr) pIC50 (converted)
Method: (§4) The human HCT-116 colorectal carcinoma cell line (ATCC CCL-247) endogenously expresses the KRAS^G13D mutation, which leads to constitutive activation of the MAP kinase pathway and phosphorylation of ERK. […] Assay read outs took place 2 or 24 hours after dosing with compounds. On the first day, HCT-116 cells were harvested, resuspended in growth medium (McCoys5A with Glutamax (Life Technologies 36600021) and 10% heat-inactivated fetal bovine serum (Sigma F9665)), and counted. Cells were plated in 100 μl per well in each well of a 96-well culture dish (Sigma CLS3598) to a final density of 30,000 (2 hr read) or 15,000 (24 hr read) cells per well and incubated over night at 37° C. and 5% CO2. On day 2, the growth medium was exchanged for dosing medium (McCoys5A with Glutamax (Life Technologies 36600021) and 1% heat-inactivated fetal bovine serum (Sigma F9665)) and the cells were dosed with compounds to produce a 10-point dose response, where the top concentration was 1 μM and subsequent concentrations were at 1/3 log dilution intervals. A matched DMSO control was included. The cells were subsequently incubated for either 2 or 24 hours at 37° C. and 5% CO2. After incubation, media was removed and the cells were incubated with lysis buffer containing phosphatase inhibitors for 15 minutes at room temperature. Cell lysates were transferred to a 12 area 96 well white Optiplate™ (Perkin Elmer 6005569) and incubated with anti-mouse IgG acceptor beads, a biotinylated anti-ERK1/2 rabbit antibody recognizing both phosphorylated and non-phosphorylated ERK1/2, a mouse antibody targeted to the Thr202/Tyr204 epitope and recognizing phosphorylated ERK proteins only, and streptavidin-coated donor beads. The biotinylated antibody binds to the streptavidin-coated donor beads and the phopsho-ERK1/2 antibody binds to the acceptor beads. Plates were read on an EnVision reader (Perkin Elmer) and excitation of the beads at 680 nm with a laser induced the release of singlet oxygen molecules from the donor beads that trigger energy transfer to the acceptor beads in close proximity, producing a signal that can be measured at […]. Both antibodies bound to phosphorylated ERK proteins, bringing the donor and acceptor beads into close proximity. All data were analyzed using the Dotmatics or GraphPad Prism software packages. Inhibition of ERK phosphorylation was assessed by determination of the absolute IC50 value, which is defined as the concentration of compound required to decrease the level of phosphorylated ERK proteins by 50% when compared to DMSO control.
A375 AlphaLISA SureFire pERK1/2 Cellular Assay (Monomer)
The human A375 melanoma cell line (ATCC CRL-1619) endogenously expresses the BRAF^V600E mutation, which leads to constitutive activation of the MAP kinase pathway and phosphorylation of ERK. In BRAF^V600E mutant tumours, BRAF signals as a monomer to activate ERK. To determine whether compounds can inhibit BRAF monomers in A375 cells, they were tested using AlphaLISA® SureFire® technology (Perkin Elmer p-ERK1/2 p-T202/Y204 assay kit ALSU-PERK-A10K). The main procedure is essentially the same as described above for HCT-116 cells, with the following adjustments: The A375 cells were cultivated and dosed in Dulbecco's modified Eagle's medium containing 4.5 g/L D-glucose (Sigma D6546), 10% heat-inactivated fetal bovine serum (Sigma F9665), and 1% Sodium-Pyruvate (Sigma S8636), and seeded with a seeding density of 30,000 cells per well. No media exchange was performed before dosing with compounds to produce a 10-point dose response, where the top concentration was 10 μM and subsequent concentrations were at 1/2 log dilution intervals. Subsequently, the cells were incubated for 1 hour at 37° C. and 5% CO2 before lysis.

[3] = Solubility (Sol), medium not stated; format: physicochemical; details: cells not marked (FESSIF)
[4] = tested on: RAF dimers in HCT-116 cells; assay: HCT-116 AlphaLISA SureFire pERK1/2 cellular assay (dimer); format: cell-based; details: Homo sapiens, HCT-116; HCT116 cells pre-dosed with 1 μM Encorafenib, 1 hr; read-out: pERK HCT116 dimer (1 hr) pIC50 (converted)
Method: as §4
HCT-116 AlphaLISA SureFire pERK1/2 Cellular Assay (Dimer)
The human HCT-116 colorectal carcinoma cell line (ATCC CCL-247) endogenously expresses the KRAS^G13D mutation, which leads to constitutive activation of the MAP kinase pathway and phosphorylation of ERK. First generation RAF inhibitors can promote RAF dimer formation in KRAS mutant tumours leading to a paradoxical activation of the pathway. To determine whether compounds can circumvent this problem and inhibit RAF dimers in HCT-116 cells, they were tested using AlphaLISA® SureFire® technology (Perkin Elmer p-ERK1/2 p-T202/Y204 assay kit ALSU-PERK-A10K). The main procedure is essentially the same as described above, with the following adjustments: Cells were seeded with the seeding density of 30,000 cells per well. On the second day (the day of dosing) no medium change was performed and the cells were dosed with 1 μM of Encorafenib for 1 hour (at 37° C. and 5% CO2) to induce RAF dimers and promote paradoxical dimer-dependent pERK signalling. After incubation, the cells were washed, 100 μl fresh growth medium was added, and cells were dosed with compounds of interest to produce a 10-point dose response, where the top concentration was 10 μM and subsequent concentrations are at 1/2 log dilution intervals. Cells were incubated for another hour at 37° C. and 5% CO2 before lysis and processing with the pERK AlphaLISA® SureFire® kit as described above. […]

[5] = Plasma protein binding assay, human plasma (hPPB); format: in vitro ADME; details: 5 μM, equilibrium dialysis 4 hours 37° C.
Method: (§5) Plasma Protein Binding Assay The plasma protein binding was determined by the equilibrium dialysis method. A known concentration of compound (5 μM) in previously frozen human or mouse plasma (Sera Labs) was dialysed against phosphate buffer using a RED device (Life Technologies) for 4 hours at 37° C. The concentration of compound in the protein containing (PC) and protein free (PF) sides of the dialysis membrane were determined by LC-MS/MS and the % free compound was determined by equation 4. Data analysis was performed using Excel (Microsoft, USA). % free=(1−((PC−PF)/PC))×100 (4) hPPB (human plasma protein binding) and mPPB (mouse plasma protein binding) results are described in Tables 1-2.

[6] = Plasma protein binding assay, mouse plasma (mPPB); format: in vitro ADME; details: 5 μM, equilibrium dialysis 4 hours 37° C.
Method: as §5

[7] = Microsomal stability assay, human liver microsomes (HLM); format: in vitro ADME; details: 0.5 mg/mL protein, 1 μM substrate
Method: as §1, §2, §3

| Structure (SMILES) | microsomal CLint at 1 μM [1] [µL/min/mg] | IC50 [2] [nM] | Sol [3] [mg/L] | IC50 [4] [nM] | hPPB (% free) [5] [% free] | mPPB (% free) [6] [% free] | microsomal CLint at 1 μM [7] [µL/min/mg] |
| --- | --- | --- | --- | --- | --- | --- | --- |
| COc1ccccc1-c1c[nH]c(C2COc3ccc(Oc4ccnc5c4CCC(=O)N5)cc3C2)n1 (stereo not shown) [Compound 1, 5-[3-[4-(2-methoxyphenyl)-1H-imidazol-2-yl]chroman-6-yl]oxy-3,4-dihydro-1H-1,8-naphthyridin-2-one] | 109 | 28.2 | <1.2 | 67.6 | 0.2 | 0.5 | 123 |
| Cc1ccccc1-c1c[nH]c(C2COc3ccc(Oc4ccnc5c4CCC(=O)N5)cc3C2)n1 (stereo not shown) [Compound 2, 5-[3-[4-(o-tolyl)-1H-imidazol-2-yl]chroman-6-yl]oxy-3,4-dihydro-1H-1,8-naphthyridin-2-one] | 85.8 | 12.6 | <1.1 | 58.9 | 0.3 | 1 | 147 |
| O=C1CCc2c(Oc3ccc4c(c3)CC(c3nc(-c5ccccc5C(F)(F)F)c[nH]3)CO4)ccnc2N1 (stereo not shown) [Compound 4, 5-[3-[4-[2-(trifluoromethyl)phenyl]-1H-imidazol-2-yl]chroman-6-yl]oxy-3,4-dihydro-1H-1,8-naphthyridin-2-one] | 121 | 97.7 | <1.3 | 269 | <0.1 | 0.5 | 261 |
| N#Cc1cccc(-c2c[nH]c(C3COc4ccc(Oc5ccnc6c5CCC(=O)N6)cc4C3)n2)c1 (stereo not shown) [Compound 16, 3-[2-[6-[(7-oxo-6,8-dihydro-5H-1,8-naphthyridin-4-yl)oxy]chroman-3-yl]-1H-imidazol-4-yl]benzonitrile] | – | 575 | <1.2 | 617 | – | – | – |
| O=C1CCc2c(Oc3ccc4c(c3)CC(c3nc5cc(C(F)(F)F)cc(Cl)c5[nH]3)CO4)ccnc2N1 (stereo not shown) [Compound 30] | – | 162 | <1.3 | 1320 | – | – | – |
| CN(C)Cc1cc(C(F)(F)F)c2nc(C3COc4ccc(Oc5ccnc6c5CCC(=O)N6)cc4C3)[nH]c2c1 (stereo not shown) [Compound 34] | 8.6 | 4470 | 28.7 | – | 0.7 | 3.2 | 46.9 |
| O=C1CCc2c(Oc3ccc4c(c3)CC(c3cc(-c5ccccc5C(F)(F)F)n[nH]3)CO4)ccnc2N1 (stereo not shown) [Compound 35, 5-[3-[3-[2-(trifluoromethyl)phenyl]-1H-pyrazol-5-yl]chroman-6-yl]oxy-3,4-dihydro-1H-1,8-naphthyridin-2-one] | 42.1 | 2450 | <1.3 | 525 | <0.1 | – | 277 |
| O=C1CCc2c(Oc3ccc4c(c3)CC(c3cc(-c5ccccc5Cl)n[nH]3)CO4)ccnc2N1 (stereo not shown) [Compound 36] | 18.4 | 525 | <1.2 | 174 | – | <0.1 | 23.5 |
| O=C1CCc2c(Oc3ccc4c(c3)CC(c3cc(-c5cccc(Cl)c5)n[nH]3)CO4)ccnc2N1 (stereo not shown) [Compound 37] | 18.4 | 501 | <1.2 | 339 | – | – | – |
| O=C1CCc2c(Oc3ccc4c(c3)CC(c3cc(-c5ccc(C(F)(F)F)cc5)n[nH]3)CO4)ccnc2N1 (stereo not shown) [Compound 38] | 4.3 | 8510 | <1.3 | 3980 | – | – | 3 |
| COc1ccccc1-c1cc(C2COc3ccc(Oc4ccnc5c4CCC(=O)N5)cc3C2)[nH]n1 (stereo not shown) [Compound 40] | 27.1 | 251 | <1.2 | 324 | – | – | – |
| COc1cccc(-c2cc(C3COc4ccc(Oc5ccnc6c5CCC(=O)N6)cc4C3)[nH]n2)c1 (stereo not shown) [Compound 41] | 46.1 | 513 | <1.2 | 302 | – | 1.2 | – |
| O=C1CCc2c(Oc3ccc4c(c3)CC(c3cc(-c5cccc(C(F)(F)F)c5)n[nH]3)CO4)ccnc2N1 (stereo not shown) [Compound 42] | 22 | 891 | <1.3 | 741 | – | <0.1 | 10.6 |
| O=C1CCc2c(Oc3ccc4c(c3)CN(C(=O)Nc3ccccc3)CC4)ccnc2N1 [Compound 46, 7-[(7-oxo-6,8-dihydro-5H-1,8-naphthyridin-4-yl)oxy]-N-phenyl-3,4-dihydro-1H-isoquinoline-2-carboxamide] | 45.5 | – | <1 | – | 1.9 | 2.3 | 18.4 |
| c1ccc(-c2c[nH]c(C3COc4ccc(OC5CCOCC5)cc4C3)n2)cc1 (stereo not shown) [compound 51] | 123 | – | 1.2 | – | 0.5 | 2.6 | 156 |
